Data on 1 molecule can be found in ChEMBL document CHEMBL5331114, “Discovery of Pyxinol Amide Derivatives Bearing Amino Acid Residues as Nonsubstrate Allosteric Inhibitors of P-Glycoprotein-Mediated Multidrug Resistance” (J Med Chem, 2023).

As a reminder, the inhibition is the relative decrease from the control value, in per cent. For orientation: inhibition in vivo means the share of the control response that was lost under treatment.

SMILES strings stand for the structures. Calls of active or inactive are those of the source. The calls are words filed in the database; no cut-off is given here.

The nature of data set [1]: Cytotoxicity against human KBV Cells assessed as cell survival rate at 10 uM incubated for 72 hrs by MTT assay. It counts as functional. As to conditions: read-out: Survival.
Data set [2] concerns the target T1, ATP-dependent translocase ABCB1 (Homo sapiens, UniProt P08183). Nature of the data set: Binding affinity to P-glycoprotein in human KBV cells assessed as stabilization of P-glycoprotein at 50 uM incubated for 26 hrs by western blot based cellular thermal shift assay. The format is cell-based.
The subject of the next data set is KBV. Nature of the data set: Chemo-sensitizing activity against Ptx-resistance human KBV cells xenografted in BALB/c mouse assessed as inhibition of tumor growth at 20 mg/kg,ip measured after 23 days. The format is functional, organism-based. The following applies: time 23.0 day. On the technique in general: Xenograft models place foreign cells or tissue in a host animal.

The target in another data set is P-gp (ABCB1) ATPase (Homo sapiens, UniProt P08183). Put plainly: Negative allosteric modulator activity at human P-gp ATP synthase hydrolytic activity assessed as inhibition of basal Pgp-ATPase activity at 25 uM incubated for 60 mins in presence of ATP by Glo-luminescence based microplate reader assay relative to DMSO.
Chain of P-gp (ABCB1) ATPase (P08183 whole entry): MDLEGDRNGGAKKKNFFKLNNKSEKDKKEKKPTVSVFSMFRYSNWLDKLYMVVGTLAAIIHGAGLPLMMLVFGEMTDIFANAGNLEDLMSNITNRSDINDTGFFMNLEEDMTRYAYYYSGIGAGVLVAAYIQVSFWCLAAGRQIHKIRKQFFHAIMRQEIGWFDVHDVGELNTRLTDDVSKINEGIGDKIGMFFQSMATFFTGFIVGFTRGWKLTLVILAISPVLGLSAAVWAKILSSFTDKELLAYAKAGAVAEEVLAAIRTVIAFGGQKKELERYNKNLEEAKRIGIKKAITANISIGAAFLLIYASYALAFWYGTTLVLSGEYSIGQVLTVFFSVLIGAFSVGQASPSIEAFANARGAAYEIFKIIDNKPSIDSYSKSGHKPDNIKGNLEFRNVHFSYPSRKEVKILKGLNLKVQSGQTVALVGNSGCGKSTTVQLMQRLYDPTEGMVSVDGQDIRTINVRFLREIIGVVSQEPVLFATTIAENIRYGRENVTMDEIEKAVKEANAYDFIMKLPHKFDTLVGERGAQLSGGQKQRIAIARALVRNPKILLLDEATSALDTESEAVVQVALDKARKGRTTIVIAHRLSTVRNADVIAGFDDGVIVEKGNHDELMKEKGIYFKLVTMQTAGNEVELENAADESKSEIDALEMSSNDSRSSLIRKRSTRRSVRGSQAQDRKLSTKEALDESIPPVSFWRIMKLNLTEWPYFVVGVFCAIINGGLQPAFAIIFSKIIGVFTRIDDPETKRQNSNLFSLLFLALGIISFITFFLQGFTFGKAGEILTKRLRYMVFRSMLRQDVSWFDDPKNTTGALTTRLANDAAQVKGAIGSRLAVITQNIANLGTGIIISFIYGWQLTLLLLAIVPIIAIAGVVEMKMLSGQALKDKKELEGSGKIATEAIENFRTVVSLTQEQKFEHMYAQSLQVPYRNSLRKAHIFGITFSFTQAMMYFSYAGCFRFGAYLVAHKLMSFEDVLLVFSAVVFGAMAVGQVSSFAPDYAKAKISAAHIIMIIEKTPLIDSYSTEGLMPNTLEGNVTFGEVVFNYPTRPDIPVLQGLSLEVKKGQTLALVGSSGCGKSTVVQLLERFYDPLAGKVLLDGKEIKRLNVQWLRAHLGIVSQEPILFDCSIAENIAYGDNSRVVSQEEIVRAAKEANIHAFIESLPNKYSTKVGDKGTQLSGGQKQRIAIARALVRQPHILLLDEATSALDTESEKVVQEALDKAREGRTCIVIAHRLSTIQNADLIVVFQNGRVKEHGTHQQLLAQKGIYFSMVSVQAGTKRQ
In data set [3] the target is T1, ATP-dependent translocase ABCB1. Put plainly: Negative allosteric modulator activity at P-glycoprotein in human KBV cells assessed as effect on P-gp protein localization at 10 uM incubated for 48 hrs by immunofluorescence analysis. It counts as cell-based.
The nature of data set [4]: Induction of cell cycle arrest in human KBV cells assessed as accumulation of cells at G2-M phase at 5 uM incubated for 24 hrs by flow cytometry analysis (reference value: 24.94 +/- 0.21%). It counts as functional.
Data set [5] is described as follows: Induction of Ptx-mediated cell cycle arrest in human KBV cells assessed as accumulation of cells at Sub-G1 phase at 5 uM incubated for 24 hrs in presence of paclitaxel by flow cytometry analysis (reference value: 1.21 +/- 0.3%). The format is functional.
Data set [6] in a line: Induction of Ptx-mediated cell cycle arrest in human KBV cells assessed as accumulation of cells at G2-M phase at 10 uM incubated for 24 hrs in presence of paclitaxel by flow cytometry analysis (Rvb =25.34 +/- 0.92%). The format is functional. (In general: In flow cytometry, cells or beads pass a laser one at a time.)
Data set [7] is described as follows: Chemo-sensitizing activity against Ptx-resistance human KBV cells xenografted in BALB/c mouse assessed as inhibition of tumor growth at 20 mg/kg,ip pre-treated with paclitaxel measured after 23 days. It counts as functional. As to conditions: 552 h, time 23 day.

T1 sequence (P08183 whole entry): as above

As to `CC(C)(O)[C@H]1CC[C@@](C)([C@H]2CC[C@]3(C)[C@@H]2[C@H](O)C[C@@H]2[C@@]4(C)CC[C@H](NC(=O)[C@@H]5CCCN5)C(C)(C)[C@@H]4CC[C@]23C)O1`, the viability at 10 µM in data set [1] came out at 123%. Further, the Activity entry in data set [2] was “Active”; in [3], “Not Active”; in data set [4] it was 27.12%; in data set [5] it was 11.4%; in data set [6], 42.21%. Moreover, the result with KBV was inactive. Also, at P-gp (ABCB1) ATPase, the inhibition at 1 h, 25 µM amounted to 87%. For the same molecule, the inhibition in vivo at 20 mg/kg in data set [7] was 58.1%.
